Reference: patent EP2276483B1, “SOLID FORMS COMPRISING (+)-2-[1-(3-ETHOXY-4-METHOXYPHENYL)-2-METHYLSULFONYLETHYL]-4-ACETYLAMINOISOINDOLINE-1,3-DIONE, COMPOSITIONS THEREOF, AND USES THEREOF” (CELGENE CORPORATION, priority 2008, dated 2009)

Key:
[1] = molecular target: T1, PDE6 from bovine retinal rod outer segments (Bos taurus, UniProt P11541+P23439); test: PDE6 enzyme assay; assay type: biochemical
T1 construct: PDE6 from bovine retinal rod outer segments; from tissue; host or cells: bovine retinal rod outer segments
T1 sequence (P11541 2-856 limits assumed): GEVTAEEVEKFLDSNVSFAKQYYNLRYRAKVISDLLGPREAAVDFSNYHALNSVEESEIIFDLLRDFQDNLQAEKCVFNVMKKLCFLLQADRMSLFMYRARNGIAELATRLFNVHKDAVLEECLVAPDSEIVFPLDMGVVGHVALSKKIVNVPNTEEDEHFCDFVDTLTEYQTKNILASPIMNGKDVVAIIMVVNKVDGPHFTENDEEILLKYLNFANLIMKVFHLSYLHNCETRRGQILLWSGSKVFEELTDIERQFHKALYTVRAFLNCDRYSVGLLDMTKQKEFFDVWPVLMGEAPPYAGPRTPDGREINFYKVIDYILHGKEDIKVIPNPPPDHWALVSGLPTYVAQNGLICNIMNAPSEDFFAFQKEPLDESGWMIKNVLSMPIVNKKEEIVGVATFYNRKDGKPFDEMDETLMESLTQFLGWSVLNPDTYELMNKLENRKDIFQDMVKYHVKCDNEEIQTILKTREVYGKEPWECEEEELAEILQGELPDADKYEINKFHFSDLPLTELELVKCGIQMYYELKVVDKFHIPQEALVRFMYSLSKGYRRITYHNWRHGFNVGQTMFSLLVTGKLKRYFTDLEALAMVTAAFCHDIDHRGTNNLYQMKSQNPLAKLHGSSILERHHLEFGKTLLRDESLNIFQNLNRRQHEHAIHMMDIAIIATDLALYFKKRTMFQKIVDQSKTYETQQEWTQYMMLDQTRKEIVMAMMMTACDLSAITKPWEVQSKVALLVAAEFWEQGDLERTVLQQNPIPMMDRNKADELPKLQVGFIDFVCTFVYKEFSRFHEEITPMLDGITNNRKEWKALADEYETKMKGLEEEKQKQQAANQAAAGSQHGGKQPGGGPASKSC
T1 sequence (P23439 2-850 limits assumed): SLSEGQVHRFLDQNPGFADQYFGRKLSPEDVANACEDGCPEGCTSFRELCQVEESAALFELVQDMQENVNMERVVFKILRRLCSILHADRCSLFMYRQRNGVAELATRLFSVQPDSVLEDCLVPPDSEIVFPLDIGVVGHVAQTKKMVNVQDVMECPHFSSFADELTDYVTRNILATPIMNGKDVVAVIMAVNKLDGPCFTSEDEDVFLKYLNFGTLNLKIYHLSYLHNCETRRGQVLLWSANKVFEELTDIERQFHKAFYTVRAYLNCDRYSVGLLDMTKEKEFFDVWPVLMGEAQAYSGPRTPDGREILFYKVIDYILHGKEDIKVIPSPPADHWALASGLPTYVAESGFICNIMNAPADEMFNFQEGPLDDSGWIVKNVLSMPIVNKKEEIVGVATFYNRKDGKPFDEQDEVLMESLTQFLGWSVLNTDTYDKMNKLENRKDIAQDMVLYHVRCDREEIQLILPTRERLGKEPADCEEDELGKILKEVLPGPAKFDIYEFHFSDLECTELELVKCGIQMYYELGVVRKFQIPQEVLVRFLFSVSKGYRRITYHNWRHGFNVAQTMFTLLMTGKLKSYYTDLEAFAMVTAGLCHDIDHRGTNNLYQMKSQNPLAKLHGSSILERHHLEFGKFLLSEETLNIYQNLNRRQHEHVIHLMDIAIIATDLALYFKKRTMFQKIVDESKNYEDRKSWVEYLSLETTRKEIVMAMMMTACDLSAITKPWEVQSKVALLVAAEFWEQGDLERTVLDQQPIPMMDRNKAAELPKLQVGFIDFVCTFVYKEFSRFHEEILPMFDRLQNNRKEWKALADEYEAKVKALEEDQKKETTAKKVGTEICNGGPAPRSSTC

IFN-γ = test: SEB-induced IFN-γ production in human PBMC; assay type: cell-based; settings: 100 ng/ml SEB
cAMP = test: PGE2-induced cAMP elevation in human PBMC; assay type: cell-based; settings: PGE2 (10µM)
Protocol: Prostaglandin E2 (PGE2) binds to prostanoid receptors on monocytes, T cells and other leukocytes and consequently elevates intracellular cAMP levels, resulting in inhibition of cellular responses. The combination of PGE2 and a PDE4 inhibitor synergistically elevates cAMP levels in these cell types, and the elevation of cAMP in PBMC caused by PDE4 inhibitors in the presence of PGE2 is proportional to the inhibitory activity of that PDE4 inhibitor. Intracellular cAMP was measured in human PBMC as follows. PBMC were isolated as described above and plated in 96-well plates at 1 x 10^6 cells per well in RPMI-1640. The cells were pre-treated with compounds at 100, 10, 1, 0.1, 0.01, and 0 µM in a final concentration of 2% DMSO in duplicate at 37°C in a humidified incubator at 5% CO2 for one hour. The cells were then stimulated with PGE2 (10µM) (Sigma) for 1h. The cells were lysed with HCl, 0.1 N final concentration to inhibit phosphodiesterase activity and the plates were frozen at -20°C. The cAMP produced was measured using cAMP (low pH) Immunoassay kit (R&D Systems).

CD18 = test: fMLF-induced CD18 expression on neutrophils; assay type: cell-based; settings: Neutrophil; human neutrophils; 30 nM fMLF
Protocol: CD18/CD11b (Mac-1) expression on neutrophils was measured as previously described (Derian et al., 1995, J. Immunol., 154:308-3 17) with the following modifications. Neutrophils were isolated as described above, then resuspended in complete medium at 1x10^6 cells/ml, pretreated with compounds at 10, 1, 0.1, 0.01, and 0 µM in duplicate at a final DMSO concentration of 0.1% for 10 minutes at 37°C 5%CO2. Cells were then stimulated with 30 nM fMLF for 30 minutes and then chilled to 4°C. Cells were treated with rabbit IgG (Jackson ImmunoResearch Labs, West Grove, PA, USA) (10 µg/1x10^6 cells) to block Fc receptors, stained with CD18-FITC and CD11b-PE (Becton Dickinson), and analyzed by flow cytometry on a FACSCalibur. CD18/CD11b expression (mean fluorescence) in the absence of stimulation was subtracted from all samples to obtain inhibition curves and calculate IC50 values.

Structure (SMILES): CCOc1cc(C(CS(C)(=O)=O)N2C(=O)c3cccc(NC(C)=O)c3C2=O)ccc1OC (single isomer, unassigned; (+)) [Compound A, (+)-2-[1-(3-ethoxy-4-methoxyphenyl)-2-methylsulfonylethyl]-4-acetylaminoisoindoline-1,3-dione]
- PDE Specificity Ratio PDE4/PDE6 ([1]; from above data): >40000 fold
- inhibition at 10 µM ([1]; read-out: PDE6 (% inhib at 10 µM)): -6%
- IC50 (IFN-γ): 46 nM
- EC50 (cAMP): 1580 nM
- IC50 (CD18): 390 nM
